Reference: patent publication US8802865B2 (Janssen Pharmaceutica, NV, priority 2006, dated 2014)

How the values were obtained:
[1] = test system: ventral prostate; assay: Ventral Prostate Weight in vivo Assay (inhibition of testosterone-enhanced tissue weight); set-up: key: “active” in the Table below if the non weight adjusted prostate weight was ≦40 mg or the % Inhibition prostate weight, body weight adjusted was ≧40% @ 2 mg/day dosage; listed herein as “inactive” as they did not meet the specified criteria defined above; details: castrated male Sprague Dawley rats, test compound usually orally once daily with testosterone propionate s.c.; ventral prostate wet weight; criteria at 2 mg/day dosage
Method: (§1) Ventral Prostate and Levator Ani Weight in vivo Assay
(§2) Immature (approximately 50 g) castrated male Sprague Dawley rats (Charles River) were treated once daily for five days with test compound (usually given orally at 40 mg/kg in a volume of 0.3 mL, in 30% cyclodextrin or 0.5% methylcellulose vehicle) and with testosterone propionate (given subcutaneously by injection at the nape of the neck at 2 mg/kg, in a volume of 0.1 mL in sesame oil). On the sixth day, the rats were euthanized by asphyxiation in carbon dioxide. Ventral prostates and levator ani were removed and their wet weights determined. Test compound activity was determined as the percent inhibition of testosterone-enhanced tissue weights, with a vehicle-treated control group set to zero percent and a testosterone alone-treated control group set to 100%.
(§3) Mature (150- to 200-g) castrated male Sprague Dawley rats (Charles River) are similarly tested according to the procedure described above. The rats were dosed for two weeks, with 0.4 mg/kg testosterone propionate used as the positive control.
(§4) Representative compounds of the present invention were tested according to the procedure described above, with results as listed in Table 3 below. For effect on prostate—i.e. an antagonist—a test compound is listed as “active” in the Table below if the non weight adjusted prostate weight was ≦40 mg or the % Inhibition prostate weight, body weight adjusted was ≧40% @ 2 mg/day dosage. For effect on levator ani—i.e. an agonist—a test compound is listed as “active” in the Table below if the non weight adjusted levator ani weight was ≧40 mg or the % Stimulation levator ani weight, body weight adjusted was ≧40% at 2 mg/day dosage.

[2] = test system: levator ani; assay: Levator Ani Weight in vivo Assay (stimulation of levator ani weight); set-up: key: “active” in the Table below if the non weight adjusted levator ani weight was ≧40 mg or the % Stimulation levator ani weight, body weight adjusted was ≧40% at 2 mg/day dosage; listed herein as “inactive” as they did not meet the specified criteria defined above; details: castrated male Sprague Dawley rats, test compound usually orally once daily with testosterone propionate s.c.; levator ani wet weight; criteria at 2 mg/day dosage
Method: as §1, §2, §3, §4

Row | Compound | Prostate antagonist [1] | L.A. agonist [2]
1 | N#CCC(O)(c1nc2cc(Cl)c(Cl)cc2[nH]1)C(F)(F)F (stereo not shown) [Compound 7, 3-(5,6-Dichloro-1H-benzoimidazol-2-yl)-4,4,4-trifluoro-3-hydroxy-butyronitrile] | inactive | active
2 | C/C=C\C(O)(c1nc2cc(Cl)c(Cl)cc2[nH]1)C(F)(F)F (stereo not drawn) [Compound 15, 2-(5,6-Dichloro-1H-benzoimidazol-2-yl)-1,1,1-trifluoro-cis-pent-3-en-2-ol] | active | active
3 | C=CCC(O)(c1nc2cc(C#N)c(C(F)(F)F)cc2[nH]1)C(F)(F)F (stereo not shown) [Compound 38, 2-(1-Hydroxy-1-trifluoromethyl-but-3-enyl)-6-trifluoromethyl-1H-benzoimidazole-5-carbonitrile] | active | active
4 | FC(F)(F)C1(c2nc3cc(Cl)c(Cl)cc3[nH]2)C=CCO1 (stereo not shown) [Compound 45, 5,6-Dichloro-2-(2-trifluoromethyl-2,5-dihydro-furan-2-yl)-1H-benzoimidazole] | inactive | active
5 | FC(F)(F)C1(c2nc3cc(Cl)c(Cl)cc3[nH]2)CCCO1 (stereo not shown) [Compound 46, 5,6-Dichloro-2-(2-trifluoromethyl-tetrahydro-furan-2-yl)-1H-benzoimidazole] | active | active
